Three compounds from PubChem BioAssay AID1963429 (Molecular Pharmacology Branch, DTP, NCI, 2024) can be followed below.

Several values for one entry are separate records, joined by “and”; a condition that tells them apart may be missing. Equal values may be shown once.

As a reminder, the IC50 is the concentration needed to halve the response being measured. Usually viability, T/C stands for the ratio of treated to control.

For the test, the system named is 126254-015-R-J1-PDC complex spheroid growth, % test/control. The test is described as follows: Anticancer human tumor 126254-015-R-J1-PDC patient-derived soft tissue sarcoma cell line growth inhibition [Asc]. The note with it: for viability, T/C: stronger effect = lower value. As for the experimental part: Multicellular complex tumor spheroid response to apoptosis pathway targeting inhibitors Alrizomadlin, Pelcitoclax, and Dasminapant in combination with a variety of drugs and investigational agents in selected tumor cell lines
The MDM2 inhibitor alrizomadlin, the Bcl-2/Bcl-xL inhibitor pelcitoclax, and the IAPs inhibitor dasminapant were evaluated both individually and in combination with standard of care and investigational anticancer small molecules within a complex spheroid model of solid tumors. . Complex spheroids include a stromal component modeled by human endothelial cells (HUVEC) and fibroblasts modeled by human mesenchymal stem cells (MSCs). The concentration ranges selected for each drug and investigational agent were based upon clinically achievable concentrations if the clinical Cmax of the agent was known.
Compounds. The drugs and investigational agents: alrizomadlin (APG-115; NSC831270), pelcitoclax (APG-1252; NSC835773), dasminapant (APG-1387;NSC834197), TAK-243 (NSC785004), copanlisib (NSC809693), olaparib (NSC753686), talazoparib (NSC767125), cobimetinib (NSC 768068), eltanexor (KPT-8602, NSC 794443), abemaciclib (NSC 768073), sotorasib (NSC818433), adagrasib (NSC 831453), MRTX-1133 (NSC 836407), Iadademestat (ORY1001, NSC 806812), and RMC-4630 (NSC839698), were obtained from the NCI Developmental Therapeutics Program Chemical Repository. The FDA-approved anticancer drug set is available from the Developmental Therapeutics Program at https://dtp.cancer.gov/organization/dscb/obtaining/available plates.htm. […] The stock solutions were prepared in dimethyl sulfoxide (DMSO, Sigma-Aldrich, St. Louis, MO, cat. D2650) at 800-fold the tested concentration and stored at -70 degrees C prior to their use. All drugs and investigational agents were tested over a range starting from a high concentration at or near the clinical Cmax and decreasing in half-log increments. If the clinical Cmax for an agent had not been determined, the highest concentration tested was 10 microM.
The patient-derived cancer (PDC) cell lines include five colon adenocarcinomas: 186277-243-T-J2-PDC, 616215-338-R-J1-PDC, 439559-082-T-J2-PDC, 463943-066-T-J2-PDC, and 519858-162-T-J1-PDC; three pancreatic carcinomas: 323965-272-R-J2-PDC, 521955-158-R6-J3-PDC, and 521955-158-R2-J5-PDC; two uterine sarcomas: 327498-152-R-J2-PDC and 993429-296-R-J1-PDC; two rhabdomyosarcomas: 755483-174-R-J1-PDC and 772245-204-R-J1-PDC; two soft tissue sarcomas: 126254-015-R-J1-PDC and 494315-158-R-J1-PDC; two malignant fibrous histiocytomas: 317291-083-R-J1-PDC and 596521-263-R-J1-PDC; two breast carcinomas: 171881-019-R-J1-PDC and 885512-296-R-J2-PDC; and one ovarian carcinoma: 6556581-035-R-J-PDC were obtained from the NCI PDMR, (https://pdmr.cancer.gov). The established cell lines HSSY-2 synovial sarcoma (RRID:CVCL 8719), SYO-1 synovial sarcoma (RRID:CVCL_7146), MPNST malignant peripheral neural sheath tumor were obtained from the Sloan Kettering Institute. The following established cell lines were purchased from the American Type Culture Collection (ATCC, Manassas, VA), Sor the received from the NCI repository:, PANC-1 pancreatic carcinoma (CRL-1469, RRID:CVCL_0480), OVCAR-5 ovarian carcinoma (RRID:CVCL_1628), OVCAR-8 ovarian carcinoma (RRID:CVCL_1629), , MCF-7 breast carcinoma (CRL-12584, RRID:CVCL_0031), MDA-MB-231 breast carcinoma (CRL-12532, RRID:CVCL_0062), NCI-H1876 small cell lung carcinoma (CRL-5902, RRID:CVCL_1503), NCI-H510A small cell lung carcinoma (HTB-184, RRID:CVCL_1565), NCI-H1417 (CRL-5869, RRID:CVCL_1469), and NCI-H196 small cell lung carcinoma (CRL-5823, RRID:CVCL_1509). Dr. Peter Houghton (Greehey Children's Cancer Research Institute, University of Texas Health Science Center, San Antonio, TX) provided Rh-18 rhabdomyosarcoma (RRID:CVCL_1659). Pooled donor human umbilical vein endothelial cells (HUVEC, Lonza, cat. CC-2519) and human mesenchymal stem cells (hMSC, Lonza, cat. PT-2501) were purchased from Lonza (Walkersville, MD).
Cell Culture. […]
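Note: spheroids exposed to compound for seven days.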
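Throughout, for viability, T/C: 100% = DMSO vehicle control wells.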

Turning to `NC1CCC(NC2CC2c2ccccc2)CC1` (centres undefined) + CNC(C)C(=O)NC1CN(S(=O)(=O)c2cccc(S(=O)(=O)N3CCC4CCC(C(=O)NC(c5ccccc5)c5ccccc5)N4C(=O)C(NC(=O)C(C)NC)C3)c2)CCC2CCC(C(=O)NC(c3ccccc3)c3ccccc3)N2C1=O, the IC50 (curve of first compound, second compound 0.01 µM) is over 100 nM; the IC50 (curve of first compound, second compound 0.0316 µM) was over 100 nM; the 50% inhibitory concentration (IC50) (curve of first compound, second compound 0.1 µM) is over 100 nM; the IC50 (curve of first compound, second compound 0.316 µM) is over 100 nM; the half-maximal inhibitory concentration (IC50) (curve of first compound, second compound 1 µM) was over 100 nM. Besides, the viability, T/C is 86.3% (second compound 0.01 µM, first compound 0.000316 µM); 89.1% (second compound 0.01 µM, first compound 0.001 µM); 87.1% (second compound 0.01 µM, first compound 0.00316 µM); 75.5% (second compound 0.01 µM, first compound 0.01 µM); 80.5% (second compound 0.01 µM, first compound 0.0316 µM); 75% (second compound 0.01 µM, first compound 0.1 µM). The viability, T/C runs as follows: (second compound 0.0316 µM, first compound 0.000316 µM) 79.2%; (second compound 0.0316 µM, first compound 0.001 µM) 81.6%; (second compound 0.0316 µM, first compound 0.00316 µM) 77.5%; (second compound 0.0316 µM, first compound 0.01 µM) 77.3%; (second compound 0.0316 µM, first compound 0.0316 µM) 78.1%; (second compound 0.0316 µM, first compound 0.1 µM) 70.6%. In addition, the viability, T/C reads like this: (second compound 0.1 µM, first compound 0.000316 µM) 70.3%; (second compound 0.1 µM, first compound 0.001 µM) 71.3%; (second compound 0.1 µM, first compound 0.00316 µM) 72.2%; (second compound 0.1 µM, first compound 0.01 µM) 69.6%; (second compound 0.1 µM, first compound 0.0316 µM) 68.8%; (second compound 0.1 µM, first compound 0.1 µM) 68%. The viability, T/C by setting is: (second compound 0.316 µM, first compound 0.000316 µM) 62.2%; (second compound 0.316 µM, first compound 0.001 µM) 71.6%; (second compound 0.316 µM, first compound 0.00316 µM) 65%; (second compound 0.316 µM, first compound 0.01 µM) 54.5%; (second compound 0.316 µM, first compound 0.0316 µM) 61.7%; (second compound 0.316 µM, first compound 0.1 µM) 57.8%. Besides, the viability, T/C reads like this: (second compound 1 µM, first compound 0.000316 µM) 49.5%; (second compound 1 µM, first compound 0.001 µM) 56.5%; (second compound 1 µM, first compound 0.00316 µM) 54.5%; (second compound 1 µM, first compound 0.01 µM) 50.9%; (second compound 1 µM, first compound 0.0316 µM) 53.8%; (second compound 1 µM, first compound 0.1 µM) 53%.

With `COc1c(OCCCN2CCOCC2)ccc2c3n(c(=NC(=O)c4cnc(N)nc4)nc12)CCN3`, the viability, T/C is 98.8% and 93% and 88.2% (compound 0.00316 µM); 87.4% and 90.6% and 95.3% (compound 0.01 µM); 60.5% and 65.2% and 66.9% (compound 0.0316 µM); 37.3% and 29.9% and 45.1% (compound 0.1 µM); 16.1% and 17.7% and 24.1% (compound 0.316 µM); 9.83% and 12.4% and 16.3% (compound 1 µM). Where the note is “curve of compound”, the IC50 is 53.6 nM and 52.5 nM and 76 nM.

On to `Cn1ncnc1[C@H]1c2n[nH]c(=O)c3cc(F)cc(c23)N[C@@H]1c1ccc(F)cc1`, for which the viability, T/C by setting is: (compound 0.000316 µM) 93.2% and 98% and 104%; (compound 0.001 µM) 95.6% and 106% and 103%; (compound 0.00316 µM) 90.9% and 91% and 86.1%; (compound 0.01 µM) 80.1% and 88.7% and 90.3%; (compound 0.0316 µM) 91.6% and 90% and 79.6%; (compound 0.1 µM) 80.9% and 89.7% and 70.5%. Further, for the setting “curve of compound”, the IC50 is over 100 nM.
